Test results as given in patent US11274083B2, “Substituted thiophenyl uracils, salts thereof and the use thereof as herbicidal agents” (Syngenta Crop Protection AG, priority 2017, dated 2022).

Experiments:
Assay type in all cases: in vivo
[1] = system: Matricaria inodora; experiment: Herbicidal action pre-emergence, greenhouse pot test
[2] = system: Abutilon theophrasti; experiment: Herbicidal action post-emergence, greenhouse pot test; settings: application rate 80 g/ha
Outline: (§1)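 Weeds were sown in sandy loam and grown in a greenhouse for 2 to 3 weeks, then sprayed at the one-leaf stage with WP or EC formulations plus 0.5% additive at 600 L/ha water, at 80 g/ha or lower. Efficacy was scored visually about 3 weeks later against untreated controls.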

[3] = system: Alopecurus myosuroides; experiment: as above; settings: scored visually after about 3 weeks vs untreated controls
Outline: as §1

[4] = system: Polygonum convolvulus; experiment: as above; settings: application rate 80 g/ha
Outline: as §1

[5] = system: Pharbitis purpurea; experiment: as above
Outline: as §1

[6] = system: Lolium rigidum; experiment: as above; settings: application rate 80 g/ha
Outline: as §1

[7] = system: Matricaria inodora; experiment: as above; settings: application rate 80 g/ha
Outline: as §1

[8] = system: Setaria viridis; experiment: as above; settings: application rate 80 g/ha
Outline: as §1

[9] = system: Amaranthus retroflexus; experiment: as above
Outline: as §1

[10] = system: Veronica persica; experiment: as above
Outline: as §1

[11] = system: Viola tricolor; experiment: as above; settings: application rate 80 g/ha
Outline: as §1

[12] = system: Stellaria media; experiment: as above
Outline: as §1

[13] = system: Avena fatua; experiment: as above; settings: application rate 80 g/ha
Outline: as §1

[14] = system: Hordeum murinum; experiment: as above; settings: application rate 80 g/ha
Outline: as §1

[15] = system: Echinochloa crus-galli; experiment: as above; settings: application rate 80 g/ha
Outline: as §1

[16] = system: Zea mays; experiment: Crop compatibility post-emergence, greenhouse pot test
Outline: (§2)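 Pot-grown plants in sandy loam, greenhouse, sprayed post-emergence at the one-leaf stage (2–3 weeks after sowing) with WP or EC formulations as aqueous spray plus 0.5% additive at 600 L/ha. Damage scored visually after about 3 weeks versus untreated controls, in % (0% = like control, 100% = dead).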

[17] = system: Abutilon theophrasti; experiment: Herbicidal action pre-emergence, greenhouse pot test
Outline: (§3)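 Seeds were sown in pots and covered with soil, then compounds formulated as WP or EC were sprayed onto the soil surface as aqueous suspension or emulsion with 0.5% additive at 600 L/ha water, 320 g/ha or lower. After about 3 weeks in the greenhouse, efficacy was scored visually as % versus untreated controls.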

[18] = system: Alopecurus myosuroides; experiment: as above; settings: application rate 320 g/ha
Outline: as §3

[19] = system: Polygonum convolvulus; experiment: as above
Outline: as §3

[20] = system: Pharbitis purpurea; experiment: as above
Outline: as §3

[21] = system: Lolium rigidum; experiment: as above; settings: application rate 320 g/ha
Outline: as §3

[22] = system: Setaria viridis; experiment: as above
Outline: as §3

[23] = system: Amaranthus retroflexus; experiment: as above
Outline: as §3

[24] = system: Veronica persica; experiment: as above
Outline: as §3

[25] = system: Viola tricolor; experiment: as above
Outline: as §3

[26] = system: Stellaria media; experiment: as above
Outline: as §3

[27] = system: Avena fatua; experiment: as above; settings: application rate 320 g/ha
Outline: as §3

[28] = system: Hordeum murinum; experiment: as above; settings: application rate 320 g/ha
Outline: as §3

[29] = system: Echinochloa crus-galli; experiment: as above; settings: application rate 320 g/ha
Outline: as §3

[30] = system: Triticum aestivum; experiment: Crop compatibility post-emergence, greenhouse pot test; settings: application rate 5 g/ha
Outline: as §2

[31] = system: Oryza sativa; experiment: as above; settings: application rate 5 g/ha
Outline: as §2

[32] = system: Cyperus esculentus; experiment: Herbicidal action pre-emergence, greenhouse pot test
Outline: as §3

Compound	Matricaria inodora (Efficacy in %) ([1]; application rate 320 g/ha) [%]	Abutilon theophrasti (Efficacy in %) [2] [%]	Alopecurus myosuroides (Efficacy in %) ([3]; application rate 80 g/ha) [%]	Polygonum convolvulus (Efficacy in %) [4] [%]	Pharbitis purpurea (Efficacy in %) ([5]; application rate 20 g/ha) [%]	Lolium rigidum (Efficacy in %) [6] [%]	Matricaria inodora (Efficacy in %) [7] [%]	Setaria viridis (Efficacy in %) [8] [%]	Veronica persica (Efficacy in %) ([10]; application rate 20 g/ha) [%]	Viola tricolor (Efficacy in %) [11] [%]	Avena fatua (Efficacy in %) [13] [%]	Hordeum murinum (Efficacy in %) [14] [%]	Echinochloa crus-galli (Efficacy in %) [15] [%]	Abutilon theophrasti (Efficacy in %) ([17]; application rate 320 g/ha) [%]	Alopecurus myosuroides (Efficacy in %) [18] [%]	Polygonum convolvulus (Efficacy in %) ([19]; application rate 320 g/ha) [%]	Pharbitis purpurea (Efficacy in %) ([20]; application rate 320 g/ha) [%]	Lolium rigidum (Efficacy in %) [21] [%]	Hordeum murinum (Efficacy in %) [28] [%]	Echinochloa crus-galli (Efficacy in %) [29] [%]	also measured
COC(=O)CC(CC(=O)OC)OC(=O)C(C)Sc1cc(-n2c(=O)cc(C(F)(F)F)n(C)c2=O)c(F)cc1Cl (stereo not shown) [I.1-127]	100	100	90	100	100	100	100	100	100	100	80	90	100	100	90	100	100	100	100	100	Amaranthus retroflexus (Efficacy in %) ([9]; application rate 20 g/ha): 100%; Stellaria media (Efficacy in %) ([12]; application rate 20 g/ha): 100%; Zea mays (Efficacy in %) ([16]; application rate 5 g/ha): 20%; Setaria viridis (Efficacy in %) ([22]; application rate 320 g/ha): 100%; Amaranthus retroflexus (Efficacy in %) ([23]; application rate 20 g/ha): 100%; Veronica persica (Efficacy in %) ([24]; application rate 320 g/ha): 100%; Viola tricolor (Efficacy in %) ([25]; application rate 320 g/ha): 100%; Stellaria media (Efficacy in %) ([26]; application rate 320 g/ha): 100%; Avena fatua (Efficacy in %) [27]: 90%
CCC(Sc1cc(-n2c(=O)cc(C(F)(F)F)n(C)c2=O)c(F)cc1Cl)C(=O)OCCC(=O)OC (stereo not shown) [I.2-2]	100	100	100	100	100	80	100	100	100	100	80	80	100	100	100	100	100	100	100	100	Amaranthus retroflexus (Efficacy in %) ([9]; application rate 80 g/ha): 100%; Stellaria media (Efficacy in %) ([12]; application rate 80 g/ha): 100%; Triticum aestivum (Efficacy in %) [30]: 20%; Oryza sativa (Efficacy in %) [31]: 20%; Setaria viridis (Efficacy in %) ([22]; application rate 320 g/ha): 100%; Amaranthus retroflexus (Efficacy in %) ([23]; application rate 80 g/ha): 100%; Veronica persica (Efficacy in %) ([24]; application rate 80 g/ha): 100%; Viola tricolor (Efficacy in %) ([25]; application rate 320 g/ha): 100%; Cyperus esculentus (Efficacy in %) ([32]; application rate 320 g/ha): 90%; Stellaria media (Efficacy in %) ([26]; application rate 320 g/ha): 100%
CON(C)C(=O)COC(=O)C(C)Sc1cc(-n2c(=O)cc(C(F)(F)F)n(C)c2=O)c(F)cc1Cl (stereo not shown) [I.1-242]	–	100	–	100	–	100	100	100	–	100	80	90	100	–	90	–	–	100	90	100	Matricaria inodora (Efficacy in %) ([1]; application rate 80 g/ha): 100%; Alopecurus myosuroides (Efficacy in %) ([3]; application rate 20 g/ha): 90%; Pharbitis purpurea (Efficacy in %) ([5]; application rate 80 g/ha): 100%; Amaranthus retroflexus (Efficacy in %) ([9]; application rate 80 g/ha): 100%; Veronica persica (Efficacy in %) ([10]; application rate 80 g/ha): 100%; Stellaria media (Efficacy in %) ([12]; application rate 80 g/ha): 100%; Triticum aestivum (Efficacy in %) [30]: 20%; Zea mays (Efficacy in %) ([16]; application rate 80 g/ha): 20%; Oryza sativa (Efficacy in %) [31]: 20%; Abutilon theophrasti (Efficacy in %) ([17]; application rate 80 g/ha): 100%; Polygonum convolvulus (Efficacy in %) ([19]; application rate 80 g/ha): 100%; Pharbitis purpurea (Efficacy in %) ([20]; application rate 80 g/ha): 100%; Setaria viridis (Efficacy in %) ([22]; application rate 80 g/ha): 100%; Amaranthus retroflexus (Efficacy in %) ([23]; application rate 80 g/ha): 100%; Veronica persica (Efficacy in %) ([24]; application rate 80 g/ha): 100%; Viola tricolor (Efficacy in %) ([25]; application rate 80 g/ha): 100%; Cyperus esculentus (Efficacy in %) ([32]; application rate 80 g/ha): 80%; Stellaria media (Efficacy in %) ([26]; application rate 80 g/ha): 100%; Avena fatua (Efficacy in %) [27]: 80%
